US11957759B1, “Rapidly accelerated fibrosarcoma (RAF) degrading compounds and associated methods of use” (Arvinas Operations, Inc., priority 2022, dated 2024)

Assays:
B-RAF V600E = molecular target: T1, B-RAF V600E (Homo sapiens, UniProt P15056, V600E); assay: Target protein degradation, assay C: T-Rex 293 cells, HA-BRAF_V600E, 384 well format; format: cell-based; conditions: T-Rex 293 HA-BRAF_V600E cells, 24 hours, Examples 83-269; for DC50: Assay C; for Dmax: T-REx-293, Assay C
T1 construct: expressed in transfected cells; host or cells: T-Rex 293 cells (Invitrogen #R71007)
Method in brief: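 T-Rex 293 cells stably expressing doxycycline-induced (1 ng/mL) HA-BRAF V600E were treated 24 h at 37 °C with compound (300 nM–5 pM, 11 points, 0.5% DMSO). HA immunofluorescence was quantified by high-content imaging to give DC50 and Dmax (% of control); nuclei counts versus DMSO gauged toxicity.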

B-RAF G466V = molecular target: T2, B-RAF G466V (Homo sapiens, UniProt P15056, G466V); assay: Target protein degradation, assay D: T-Rex 293 cells, HA-BRAF_G466V, 384 well format; format: cell-based; conditions: T-Rex 293 HA-BRAF_G466V cells, 24 hours, Examples 83-269; for DC50: Assay D; for Dmax: T-REx-293, Assay D
T2 construct: expressed in transfected cells; host or cells: T-Rex 293 cells (Invitrogen #R71007)
Method in brief: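 T-Rex 293 cells stably expressing doxycycline-induced (1 ng/mL) HA-BRAF G466V treated 24 h at 37 °C with PROTACs, 11-point 1:3 dilution, 300 nM to 5 pM final, 0.5% DMSO. Fixed cells immunostained for HA and imaged by high-content microscopy; DC50 and Dmax (% of control) derived, toxicity from nuclei counts versus DMSO.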

T1 sequence (P15056 whole entry V600E): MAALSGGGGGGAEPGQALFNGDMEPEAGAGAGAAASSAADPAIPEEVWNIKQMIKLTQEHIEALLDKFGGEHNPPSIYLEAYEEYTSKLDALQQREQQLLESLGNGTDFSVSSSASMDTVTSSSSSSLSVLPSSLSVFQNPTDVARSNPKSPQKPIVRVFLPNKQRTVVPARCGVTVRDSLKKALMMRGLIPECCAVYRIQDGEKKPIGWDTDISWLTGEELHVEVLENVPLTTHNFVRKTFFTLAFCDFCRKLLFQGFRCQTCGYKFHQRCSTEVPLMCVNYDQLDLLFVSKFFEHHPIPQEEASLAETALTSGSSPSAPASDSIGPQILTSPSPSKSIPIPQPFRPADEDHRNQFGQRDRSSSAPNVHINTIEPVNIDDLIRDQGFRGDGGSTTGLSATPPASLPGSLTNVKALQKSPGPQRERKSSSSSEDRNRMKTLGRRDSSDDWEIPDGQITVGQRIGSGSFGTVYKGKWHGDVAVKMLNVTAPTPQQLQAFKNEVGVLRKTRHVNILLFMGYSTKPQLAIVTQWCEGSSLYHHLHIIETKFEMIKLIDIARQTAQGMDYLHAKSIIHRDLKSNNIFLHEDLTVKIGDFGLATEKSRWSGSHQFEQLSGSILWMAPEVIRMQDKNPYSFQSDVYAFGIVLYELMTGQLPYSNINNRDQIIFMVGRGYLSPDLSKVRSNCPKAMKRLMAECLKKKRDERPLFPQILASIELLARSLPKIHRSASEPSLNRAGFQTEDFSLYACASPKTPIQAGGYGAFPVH
T2 sequence (P15056 whole entry G466V): as the sequence (P15056 whole entry V600E) above, with G466V, E600V counted along it

Question: For `N#Cc1c(NS(=O)(=O)N2CC[C@@H](F)C2)ccc(F)c1Oc1ccc2ncn(-c3cnc(N4CCC(CN5CCC6(CC5)CCN(c5ccc7c(c5)C(=O)N(C5CCC(=O)NC5=O)C7=O)CC6)CC4)nc3)c(=O)c2c1` (stereo partly drawn) [Example 129, (3R)-N-{2-cyano-3-[(3-{2-[4-({9-[2-(2,6-dioxopiperidin-3-yl)-1,3-dioxo-2,3-dihydro-1H-isoindol-5-yl]-3,9-diazaspiro[5.5]undecan-3-yl}methyl)piperidin-1-yl]pyrimidin-5-yl}-4-oxo-3,4-dihydroquinazolin-6-yl)oxy]-4-fluorophenyl}-3-fluoropyrrolidine-1-sulfonamide], which DC50 (B-RAF V600E) is on record?
Answer: 50 to 500 nM

Question: What about the Dmax (B-RAF V600E) of the same compound?
Answer: 35 to 70%

Question: What about the DC50 (B-RAF G466V) of the same compound?
Answer: 1 to 10 nM

Question: What about the Dmax (B-RAF G466V) of the same compound?
Answer: 35 to 70%

Question: What does the source list for `N#Cc1c(NS(=O)(=O)N2CC[C@@H](F)C2)ccc(F)c1Oc1ccc2ncn(-c3cnc(N4CCCC4CC4CCN(c5ccc6c(c5)C(=O)N(C5CCC(=O)NC5=O)C6=O)CC4)nc3)c(=O)c2c1` (stereo partly drawn) [Example 130, (3R)-N-{2-cyano-3-[(3-{2-[2-({1-[2-(2,6-dioxopiperidin-3-yl)-1,3-dioxo-2,3-dihydro-1H-isoindol-5-yl]piperidin-4-yl}methyl)pyrrolidin-1-yl]pyrimidin-5-yl}-4-oxo-3,4-dihydroquinazolin-6-yl)oxy]-4-fluorophenyl}-3-fluoropyrrolidine-1-sulfonamide]?
Answer: DC50 (B-RAF V600E): > 500 nM; DC50 (B-RAF G466V): 10 to 30 nM; Dmax (B-RAF G466V): ≤ 35%

Question: `N#Cc1c(NS(=O)(=O)N2CC[C@@H](F)C2)ccc(F)c1Oc1ccc2ncn(-c3cnc(N4CCC(CN5CCC6(CC5)CN(c5cccc7c5CN(C5CCC(=O)NC5=O)C7=O)C6)CC4)nc3)c(=O)c2c1` (stereo partly drawn) [Example 131, (3R)-N-{2-cyano-3-[(3-{2-[4-({2-[2-(2,6-dioxopiperidin-3-yl)-1-oxo-2,3-dihydro-1H-isoindol-4-yl]-2,7-diazaspiro[3.5]nonan-7-yl}methyl)piperidin-1-yl]pyrimidin-5-yl}-4-oxo-3,4-dihydroquinazolin-6-yl)oxy]-4-fluorophenyl}-3-fluoropyrrolidine-1-sulfonamide] was tested. Which DC50 (B-RAF V600E) did it give?
Answer: 50 to 500 nM

Question: And the Dmax (B-RAF V600E)?
Answer: 35 to 70%

Question: And the DC50 (B-RAF G466V)?
Answer: 1 to 10 nM

Question: What about the Dmax (B-RAF G466V) of the same compound?
Answer: ≤ 35%

Question: `N#Cc1c(NS(=O)(=O)N2CC[C@@H](F)C2)ccc(F)c1Oc1ccc2ncn(-c3cnc(N4CCC(CN5CC6(CCN(c7ccc8c(c7)CN(C7CCC(=O)NC7=O)C8=O)CC6)C5)CC4)nc3)c(=O)c2c1` (stereo partly drawn) [Example 132, (3R)-N-{2-cyano-3-[(3-{2-[4-({7-[2-(2,6-dioxopiperidin-3-yl)-1-oxo-2,3-dihydro-1H-isoindol-5-yl]-2,7-diazaspiro[3.5]nonan-2-yl}methyl)piperidin-1-yl]pyrimidin-5-yl}-4-oxo-3,4-dihydroquinazolin-6-yl)oxy]-4-fluorophenyl}-3-fluoropyrrolidine-1-sulfonamide] was tested. Which DC50 (B-RAF V600E) did it give?
Answer: 50 to 500 nM

Question: What about the Dmax (B-RAF V600E) of the same compound?
Answer: 35 to 70%

Question: What about the DC50 (B-RAF G466V) of the same compound?
Answer: ≤ 1 nM

Question: And the Dmax (B-RAF G466V)?
Answer: 35 to 70%

Question: What does the source list for `N#Cc1c(NS(=O)(=O)N2CC[C@@H](F)C2)ccc(F)c1Oc1ccc2ncn(-c3cnc(N4CCC(CN5CC6(C5)CN(c5ccc7c(c5)C(=O)N(C5CCC(=O)NC5=O)C7=O)C6)CC4)nc3)c(=O)c2c1` (stereo partly drawn) [Example 133, (3R)-N-{2-cyano-3-[(3-{2-[4-({6-[2-(2,6-dioxopiperidin-3-yl)-1,3-dioxo-2,3-dihydro-1H-isoindol-5-yl]-2,6-diazaspiro[3.3]heptan-2-yl}methyl)piperidin-1-yl]pyrimidin-5-yl}-4-oxo-3,4-dihydroquinazolin-6-yl)oxy]-4-fluorophenyl}-3-fluoropyrrolidine-1-sulfonamide]?
Answer: DC50 (B-RAF V600E): 50 to 500 nM; Dmax (B-RAF V600E): 35 to 70%; DC50 (B-RAF G466V): 1 to 10 nM; Dmax (B-RAF G466V): 35 to 70%

Question: Which results are given for `N#Cc1c(NS(=O)(=O)N2CC[C@@H](F)C2)ccc(F)c1Oc1ccc2ncn(-c3cnc(N4CC5(CN(CC6CCN(c7ccc8c(c7)C(=O)N(C7CCC(=O)NC7=O)C8=O)CC6)C5)C4)nc3)c(=O)c2c1` (stereo partly drawn) [Example 134, (3R)-N-{2-cyano-3-[(3-(2-[6-({1-[2-(2,6-dioxopiperidin-3-yl)-1,3-dioxo-2,3-dihydro-1H-isoindol-5-yl]piperidin-4-yl}methyl)-2,6-diazaspiro[3.3]heptan-2-yl]pyrimidin-5-yl}-4-oxo-3,4-dihydroquinazolin-6-yl)oxy]-4-fluorophenyl}-3-fluoropyrrolidine-1-sulfonamide]?
Answer: DC50 (B-RAF V600E): 50 to 500 nM; Dmax (B-RAF V600E): 35 to 70%; DC50 (B-RAF G466V): 1 to 10 nM; Dmax (B-RAF G466V): 35 to 70%

Question: Which results are given for `N#Cc1c(NS(=O)(=O)N2CC[C@@H](F)C2)ccc(F)c1Oc1ccc2ncn(-c3ccc(N4CCC(c5ccc6c(c5)C(=O)N(C5CCC(=O)NC5=O)C6=O)CC4)nc3)c(=O)c2c1` (stereo partly drawn) [Example 135, (3R)-N-(2-cyano-3-{[3-(6-{4-[2-(2,6-dioxopiperidin-3-yl)-1,3-dioxo-2,3-dihydro-1H-isoindol-5-yl]piperidin-1-yl}pyridin-3-yl)-4-oxo-3,4-dihydroquinazolin-6-yl]oxy}-4-fluorophenyl)-3-fluoropyrrolidine-1-sulfonamide]?
Answer: DC50 (B-RAF V600E): > 500 nM; DC50 (B-RAF G466V): > 30 nM

Question: For `N#Cc1c(NS(=O)(=O)N2CC[C@@H](F)C2)ccc(F)c1Oc1ccc2ncn(-c3ccc(N4CCC(c5ccc6c(c5)CN(C5CCC(=O)NC5=O)C6=O)CC4)nc3)c(=O)c2c1` (stereo partly drawn) [Example 136, (3R)-N-(2-cyano-3-{[3-(6-{4-[2-(2,6-dioxopiperidin-3-yl)-1-oxo-2,3-dihydro-1H-isoindol-5-yl]piperidin-1-yl}pyridin-3-yl)-4-oxo-3,4-dihydroquinazolin-6-yl]oxy}-4-fluorophenyl)-3-fluoropyrrolidine-1-sulfonamide], which DC50 (B-RAF V600E) is on record?
Answer: 5 to 50 nM

Question: What about the Dmax (B-RAF V600E) of the same compound?
Answer: ≤ 35%

Question: What about the DC50 (B-RAF G466V) of the same compound?
Answer: 1 to 10 nM

Question: What about the Dmax (B-RAF G466V) of the same compound?
Answer: 35 to 70%

Question: For `N#Cc1c(NS(=O)(=O)N2CC[C@@H](F)C2)ccc(F)c1Oc1ccc2ncn(-c3ccc(N4CCC(CN5CCC(Oc6cccc7c6C(=O)N(C6CCC(=O)NC6=O)C7=O)CC5)CC4)nc3)c(=O)c2c1` (stereo partly drawn) [Example 137, (3R)-N-(2-cyano-3-{[3-(6-{4-[(4-{[2-(2,6-dioxopiperidin-3-yl)-1,3-dioxo-2,3-dihydro-1H-isoindol-4-yl]oxy}piperidin-1-yl)methyl]piperidin-1-yl}pyridin-3-yl)-4-oxo-3,4-dihydroquinazolin-6-yl]oxy}-4-fluorophenyl)-3-fluoropyrrolidine-1-sulfonamide], which DC50 (B-RAF V600E) is on record?
Answer: > 500 nM

Question: And the DC50 (B-RAF G466V)?
Answer: > 30 nM

Question: And the Dmax (B-RAF G466V)?
Answer: ≤ 35%

Question: For `COc1cc(N2CCN(CC3CCN(c4ccc(-n5cnc6ccc(Oc7c(F)ccc(NS(=O)(=O)N8CC[C@@H](F)C8)c7C#N)cc6c5=O)cn4)CC3)CC2)cc2c1C(=O)N(C1CCC(=O)NC1=O)C2=O` (stereo partly drawn) [Example 138, (3R)-N-{2-cyano-3-[(3-{6-[4-({4-[2-(2,6-dioxopiperidin-3-yl)-7-methoxy-1,3-dioxo-2,3-dihydro-1H-isoindol-5-yl]piperazin-1-yl}methyl)piperidin-1-yl]pyridin-3-yl}-4-oxo-3,4-dihydroquinazolin-6-yl)oxy]-4-fluorophenyl}-3-fluoropyrrolidine-1-sulfonamide], which DC50 (B-RAF V600E) is on record?
Answer: 50 to 500 nM

Question: And the Dmax (B-RAF V600E)?
Answer: ≤ 35%

Question: What about the DC50 (B-RAF G466V) of the same compound?
Answer: 1 to 10 nM

Question: And the Dmax (B-RAF G466V)?
Answer: ≤ 35%

Question: For `COc1cc(N2CCN(c3ccc(-n4cnc5ccc(Oc6c(F)ccc(NS(=O)(=O)N7CC[C@@H](F)C7)c6C#N)cc5c4=O)cn3)CC2)cc2c1C(=O)N(C1CCC(=O)NC1=O)C2=O` (stereo partly drawn) [Example 139, (3R)-N-(2-cyano-3-{[3-(6-{4-[2-(2,6-dioxopiperidin-3-yl)-7-methoxy-1,3-dioxo-2,3-dihydro-1H-isoindol-5-yl]piperazin-1-yl}pyridin-3-yl)-4-oxo-3,4-dihydroquinazolin-6-yl]oxy}-4-fluorophenyl)-3-fluoropyrrolidine-1-sulfonamide], which DC50 (B-RAF V600E) is on record?
Answer: 5 to 50 nM

Question: And the Dmax (B-RAF V600E)?
Answer: ≤ 35%

Question: And the DC50 (B-RAF G466V)?
Answer: > 30 nM

Question: What does the source list for `N#Cc1c(NS(=O)(=O)N2CC[C@@H](F)C2)ccc(F)c1Oc1ccc2ncn(-c3ccc(N4CCN(CC5CCN(c6ccc(F)c(C(=O)NC7CCC(=O)NC7=O)c6)CC5)CC4)nc3)c(=O)c2c1` (stereo partly drawn) [Example 140, 5-(4-{[4-(5-{6-[2-cyano-6-fluoro-3-({[(3R)-3-fluoropyrrolidin-1-yl]sulfonyl}amino)phenoxy]-4-oxo-3,4-dihydroquinazolin-3-yl}pyridin-2-yl)piperazin-1-yl]methyl}piperidin-1-yl)-N-(2,6-dioxopiperidin-3-yl)-2-fluorobenzamide]?
Answer: DC50 (B-RAF V600E): 50 to 500 nM; Dmax (B-RAF V600E): ≤ 35%; DC50 (B-RAF G466V): > 30 nM

Question: For `COc1ccc(N2CCC(CN3CCN(c4ccc(-n5cnc6ccc(Oc7c(F)ccc(NS(=O)(=O)N8CC[C@@H](F)C8)c7C#N)cc6c5=O)cn4)CC3)CC2)cc1C(=O)NC1CCC(=O)NC1=O` (stereo partly drawn) [Example 141, 5-(4-{[4-(5-{6-[2-cyano-6-fluoro-3-({[(3R)-3-fluoropyrrolidin-1-yl]sulfonyl}amino)phenoxy]-4-oxo-3,4-dihydroquinazolin-3-yl}pyridin-2-yl)piperazin-1-yl]methyl}piperidin-1-yl)-N-(2,6-dioxopiperidin-3-yl)-2-methoxybenzamide], which DC50 (B-RAF V600E) is on record?
Answer: 50 to 500 nM

Question: And the Dmax (B-RAF V600E)?
Answer: ≤ 35%

Question: What about the DC50 (B-RAF G466V) of the same compound?
Answer: 1 to 10 nM

Question: And the Dmax (B-RAF G466V)?
Answer: ≤ 35%

Question: `N#Cc1c(NS(=O)(=O)N2CC[C@@H](F)C2)ccc(F)c1Oc1ccc2ncn(-c3ccc(N4CCN(CC5CCN(c6ccc(N7CCC(=O)NC7=O)c(F)c6)CC5)CC4)nc3)c(=O)c2c1` [Example 142, (3R)-N-{2-cyano-3-[(3-{6-[4-({1-[4-(2,4-dioxo-1,3-diazinan-1-yl)-3-fluorophenyl]piperidin-4-yl}methyl)piperazin-1-yl]pyridin-3-yl}-4-oxo-3,4-dihydroquinazolin-6-yl)oxy]-4-fluorophenyl}-3-fluoropyrrolidine-1-sulfonamide] was tested. Which DC50 (B-RAF V600E) did it give?
Answer: 5 to 50 nM

Question: What about the Dmax (B-RAF V600E) of the same compound?
Answer: 35 to 70%

Question: And the DC50 (B-RAF G466V)?
Answer: ≤ 1 nM

Question: And the Dmax (B-RAF G466V)?
Answer: ≤ 35%
